From ChEMBL document CHEMBL2417517, “Isolation, structures, and biological activities of triterpenoids from a Penares sp. marine sponge” (J Nat Prod, 2013) come the findings set out here.

This test has as its system HL-60. Put plainly: Cytotoxicity against human HL60 cells after 46 hrs by MTS assay. The conditions noted are these: HL-60, 46 h. In kind it is functional, cell-based.

Each structure is given as a SMILES string. pIC50: −log10 of the molar value.

`CC(C)=CCC[C@@H](C)[C@H]1CC[C@]23C(=O)O[C@]4(CC[C@]12C)C3=CC[C@H]1C(C)(C)[C@@H](O)CC[C@@]14C` had a negative-log IC50 (pIC50) of 5.01.
